Data as given in patent US8916558B2, “Powders for reconstitution” (Tibotec Pharmaceuticals Ltd., priority 2007, dated 2014).

Assay: Solubility of TMC278 in water (statement)
Assay type: physicochemical
Details: free base; background statement

solubility in water: poorly soluble in water
SMILES: Cc1cc(C=CC#N)cc(C)c1Nc1ccnc(Nc2ccc(C#N)cc2)n1 [TMC278, 4-[[4-[[4-(2-cyano-ethenyl)-2,6-dimethylphenyl]-amino]-2-pyrimidinyl]-amino]-benzonitrile]
